Drawing on patent publication US9493486B2, “Diazaspirocycloalkane and azaspirocycloalkane” (Hoffmann-La Roche Inc., priority 2012, dated 2016), this text covers IC50 for 30 compounds.

By IC50 is commonly meant the point on the concentration scale where inhibition reaches its midpoint. The low end stands for inhibition by little substance, the high end for a need for much substance.

The assay deals with ATX (human His-tagged) (Homo sapiens (Human), UniProt Q13822). Description: Human ATX enzyme inhibition assay (fluorescence quenching, MR121 substrate). The format is biochemical. The note with it: 30 nM ATX, 1 μM MR121 substrate, 30° C. From the text: Human ATX Enzyme Inhibition Assay
Assay working solutions were made as follows:
Consider `O=C(OCc1ccc(Cl)nc1)N1CCC2(CC1)CN(C(=O)c1ccc3[nH]nnc3c1)C2` [Example 12.05, (6-chloropyridin-3-yl)methyl 2-(1H-benzo[d][1,2,3]triazole-5-carbonyl)-2,7-diazaspiro[3.5]nonane-7-carboxylate], for which the IC50 turned out to be 4980 nM.
As for `CS(=O)(=O)c1cc(COC(=O)N2CCC3(CC2)CN(C(=O)c2ccc4[nH]nnc4c2)C3)ccc1Cl` [Example 12.06, 4-chloro-3-(methylsulfonyl)benzyl 2-(1H-benzo[d][1,2,3]triazole-5-carbonyl)-2,7-diazaspiro[3.5]nonane-7-carboxylate], inhibition was half-maximal at 7240 nM (IC50).
In the case of `CC(OC(=O)N1CCC2(CC1)CN(C(=O)c1ccc3[nH]nnc3c1)C2)c1cc(Cl)cc(Cl)c1` (stereo not drawn) [Example 12.07, 1-(3,5-dichlorophenyl)ethyl 2-(1H-benzo[d][1,2,3]triazole-5-carbonyl)-2,7-diazaspiro[3.5]nonane-7-carboxylate], 378 nM corresponded to half-maximal inhibition (IC50).
To `O=C(OCc1cncc(Cl)c1)N1CCC2(CC1)CN(C(=O)c1ccc3[nH]nnc3c1)C2` [Example 12.08, (5-chloropyridin-3-yl)methyl 2-(1H-benzo[d][1,2,3]triazole-5-carbonyl)-2,7-diazaspiro[3.5]nonane-7-carboxylate] belongs 3830 nM.
Consider `O=C(OCc1cncc(Br)c1)N1CCC2(CC1)CN(C(=O)c1ccc3[nH]nnc3c1)C2` [Example 12.09, (5-bromopyridin-3-yl)methyl 2-(1H-benzo[d][1,2,3]triazole-5-carbonyl)-2,7-diazaspiro[3.5]nonane-7-carboxylate], for which the IC50 stood at 1640 nM.
To `O=C(OCc1cc(Cl)cc(Cl)n1)N1CCC2(CC1)CN(C(=O)c1ccc3[nH]nnc3c1)C2` [Example 12.10, (4,6-dichloropyridin-2-yl)methyl 2-(1H-benzo[d][1,2,3]triazole-5-carbonyl)-2,7-diazaspiro[3.5]nonane-7-carboxylate] belongs 291 nM; to `O=C(OCc1ccc(F)c(Cl)c1)N1CCC2(CC1)CN(C(=O)c1ccc3[nH]nnc3c1)C2` [Example 12.11, 3-chloro-4-fluorobenzyl 2-(1H-benzo[d][1,2,3]triazole-5-carbonyl)-2,7-diazaspiro[3.5]nonane-7-carboxylate], 168 nM.
Regarding `O=C(OCc1csc(Cl)c1)N1CCC2(CC1)CN(C(=O)c1ccc3[nH]nnc3c1)C2` [Example 12.12, (5-chlorothiophen-3-yl)methyl 2-(1H-benzo[d][1,2,3]triazole-5-carbonyl)-2,7-diazaspiro[3.5]nonane-7-carboxylate], the IC50 came out at 332 nM. This IC50 is about 2-fold higher than that of the compound before.
To `O=C(OCc1csc(Br)c1)N1CCC2(CC1)CN(C(=O)c1ccc3[nH]nnc3c1)C2` [Example 12.14, (5-bromothiophen-3-yl)methyl 2-(1H-benzo[d][1,2,3]triazole-5-carbonyl)-2,7-diazaspiro[3.5]nonane-7-carboxylate] belongs 270 nM; to `O=C(OCc1ccc(C(F)(F)F)cc1)N1CCC2(CC1)CN(C(=O)c1ccc3[nH]nnc3c1)C2` [Example 12.15, 4-(trifluoromethyl)benzyl 2-(1H-benzo[d][1,2,3]triazole-5-carbonyl)-2,7-diazaspiro[3.5]nonane-7-carboxylate], 35 nM.
The compound `O=C(OCc1cc(Cl)cc(Cl)c1)N1CCC2(CCN(C(=O)c3ccc4[nH]nnc4c3)C2)C1` (stereo not drawn) [Example 12.16, 3,5-dichlorobenzyl 7-(1H-benzo[d][1,2,3]triazole-5-carbonyl)-2,7-diazaspiro[4.4]nonane-2-carboxylate] returned an IC50 of 457 nM.
The compound `O=C(NC1CC2(C1)CN(C(=O)OCc1cc(Cl)cc(OC(F)(F)F)c1)C2)c1ccc2[nH]nnc2c1` [Example 12.18, 6-[(1H-benzotriazole-5-carbonyl)-amino]-2-aza-spiro[3.3]heptane-2-carboxylic acid 3-chloro-5-trifluoromethoxy-benzyl ester] showed an IC50 of 53.5 nM.
The compound `O=C(NC1CC2(C1)CN(C(=O)OCc1cccc(C(F)(F)F)c1)C2)c1ccc2[nH]nnc2c1` [Example 12.19, 6-[(1H-benzotriazole-5-carbonyl)-amino]-2-aza-spiro[3.3]heptane-2-carboxylic acid 3-trifluoromethyl-benzyl ester] had an IC50 of 2150 nM. This IC50 lies about 40-fold higher than the previous one.
On to `N#Cc1cc(Cl)cc(COC(=O)N2CC3(CC(NC(=O)c4ccc5[nH]nnc5c4)C3)C2)c1` [Example 12.20, 6-[(1H-benzotriazole-5-carbonyl)-amino]-2-aza-spiro[3.3]heptane-2-carboxylic acid 3-chloro-5-cyano-benzyl ester], for which the IC50 was found to be 5640 nM.
Turning to `O=C(NC1CC2(C1)CN(C(=O)OCc1ccc(F)c(Cl)c1)C2)c1ccc2[nH]nnc2c1` [Example 12.21, 6-[(1H-benzotriazole-5-carbonyl)-amino]-2-aza-spiro[3.3]heptane-2-carboxylic acid 3-chloro-4-fluoro-benzyl ester], the midpoint of inhibition, the IC50, lay at 1250 nM.
With `O=C(OCc1ccc(C(F)(F)F)cc1)N1CCC2(CC1)CN(C(=O)c1ccc3[nH]c(=O)oc3c1)C2` [Example 12.22, 4-(trifluoromethyl)benzyl 2-(2-oxo-2,3-dihydrobenzo[d]oxazole-6-carbonyl)-2,7-diazaspiro[3.5]nonane-7-carboxylate], half-maximal inhibition (IC50) was put at 439 nM. Compared with the last compound, the IC50 is about 2.8-fold lower.
The compound `O=C(NC1CC2(C1)CN(C(=O)OCc1cc(F)cc(C(F)(F)F)c1)C2)c1ccc2[nH]nnc2c1` [Example 12.23, 6-[(1H-benzotriazole-5-carbonyl)-amino]-2-aza-spiro[3.3]heptane-2-carboxylic acid 3-fluoro-5-trifluoromethyl-benzyl ester] registered an IC50 of 1910 nM.
To `Cc1ccc(COC(=O)N2CC3(CC(NC(=O)c4ccc5[nH]nnc5c4)C3)C2)cc1Cl` [Example 12.24, 6-[(1H-benzotriazole-5-carbonyl)-amino]-2-aza-spiro[3.3]heptane-2-carboxylic acid 3-chloro-4-methyl-benzyl ester] belongs 229 nM; to `CS(=O)(=O)c1cc(COC(=O)N2CCC3(CC2)CN(C(=O)c2ccc4[nH]nnc4c2)C3)cc(C(F)(F)F)c1` [Example 12.25, 3-(methylsulfonyl)-5-(trifluoromethyl)benzyl 2-(1H-benzo[d][1,2,3]triazole-5-carbonyl)-2,7-diazaspiro[3.5]nonane-7-carboxylate], 92 nM.
To `CS(=O)(=O)c1cc(COC(=O)N2CCC3(CC2)CN(C(=O)c2ccc4[nH]c(=O)oc4c2)C3)cc(C(F)(F)F)c1` [Example 12.26, 3-(methylsulfonyl)-5-(trifluoromethyl)benzyl 2-(2-oxo-2,3-dihydrobenzo[d]oxazole-6-carbonyl)-2,7-diazaspiro[3.5]nonane-7-carboxylate] belongs 53 nM; to `CS(=O)(=O)c1cc(Cl)ccc1COC(=O)N1CCC2(CC1)CN(C(=O)c1ccc3[nH]nnc3c1)C2` [Example 12.27, 4-chloro-2-(methylsulfonyl)benzyl 2-(1H-benzo[d][1,2,3]triazole-5-carbonyl)-2,7-diazaspiro[3.5]nonane-7-carboxylate], 140 nM.
Take `CS(=O)(=O)c1ccc(COC(=O)N2CCC3(CC2)CN(C(=O)c2ccc4[nH]nnc4c2)C3)c(Cl)c1` [Example 12.28, 2-chloro-4-(methylsulfonyl)benzyl 2-(1H-benzo[d][1,2,3]triazole-5-carbonyl)-2,7-diazaspiro[3.5]nonane-7-carboxylate]: the concentration for half-maximal inhibition (IC50) was found to be 138 nM.
Consider `O=C(NC1CC2(C1)CC(C(=O)Nc1ccc3[nH]nnc3c1)C2)OCc1cc(Cl)cc(Cl)c1` (stereo not drawn) [Example 12.29, 3,5-dichlorobenzyl 6-(1H-benzo[d][1,2,3]triazol-5-ylcarbamoyl)spiro[3.3]heptan-2-ylcarbamate], for which 68.5 nM corresponded to half-maximal inhibition (IC50). Against the preceding compound, the IC50 is about 2-fold lower.
The figure for `O=C(OCc1cc(F)cc(OC(F)(F)F)c1)N1CCCC2(CCN(C(=O)c3ccc4[nH]nnc4c3)C2)C1` (stereo not drawn) [Example 12.30, 3-fluoro-5-(trifluoromethoxy)benzyl 2-(1H-benzo[d][1,2,3]triazole-5-carbonyl)-2,7-diazaspiro[4.5]decane-7-carboxylate] is 1600 nM; for `CS(=O)(=O)c1cc(Cl)cc(COC(=O)N2CCC3(CC2)CN(S(=O)(=O)c2ccc4[nH]c(=O)oc4c2)C3)c1` [Example 12.31, 3-chloro-5-(methylsulfonyl)benzyl 2-(2-oxo-2,3-dihydrobenzo[d]oxazol-6-ylsulfonyl)-2,7-diazaspiro[3.5]nonane-7-carboxylate] it is 22 nM; for `O=C(NCc1cnn[nH]1)C1CC2(CCN(C(=O)OCc3cc(Cl)cc(Cl)c3)CC2)C1` [Example 12.32, 2-[(3H-[1,2,3]triazol-4-ylmethyl)-carbamoyl]-7-aza-spiro[3.5]nonane-7-carboxylic acid 3,5-dichloro-benzyl ester] it is 44 nM.
The compound `O=C(OCc1ccc(OC(F)(F)F)c(F)c1)N1CC2(CCN(C(=O)C3CCc4[nH]nnc4C3)CC2)C1` (stereo not drawn) [Example 12.33, 3-fluoro-4-(trifluoromethoxy)benzyl 7-(4,5,6,7-tetrahydro-1H-benzo[d][1,2,3]triazole-5-carbonyl)-2,7-diazaspiro[3.5]nonane-2-carboxylate] showed an IC50 of 13 nM.
`O=C(OCc1ccc(OC(F)(F)F)cc1)N1CC2(CCN(C(=O)C3CCc4[nH]nnc4C3)CC2)C1` (stereo not drawn) [Example 12.34, 4-(trifluoromethoxy)benzyl 7-(4,5,6,7-tetrahydro-1H-benzo[d][1,2,3]triazole-5-carbonyl)-2,7-diazaspiro[3.5]nonane-2-carboxylate]: half-maximal inhibition (IC50) was put at 10 nM.
The figure for `O=C(OCc1ccc(C(F)(F)F)cc1F)N1CCC2(CC1)CN(C(=O)C1CCc3[nH]nnc3C1)C2` (stereo not drawn) [Example 12.36, [2-fluoro-4-(trifluoromethyl)phenyl]methyl 2-(4,5,6,7-tetrahydro-1H-benzotriazole-5-carbonyl)-2,7-diazaspiro[3.5]nonane-7-carboxylate] is 1 nM; for `Cc1cc(OC(F)(F)F)ccc1COC(=O)N1CCC2(CC1)CN(C(=O)C1CCc3[nH]nnc3C1)C2` (stereo not drawn) [Example 12.37, [2-methyl-4-(trifluoromethoxy)phenyl]methyl 2-(4,5,6,7-tetrahydro-1H-benzotriazole-5-carbonyl)-2,7-diazaspiro[3.5]nonane-7-carboxylate] it is 1 nM.
